What all share (experiment): KinaseProfiler kinase panel
Holding throughout (format): biochemical

The target of test [1] is Ret(V804M)(h) (Homo sapiens (Human), UniProt P07949, V804M).
For test [2], the target named is Aurora-B(h) (Homo sapiens (Human), UniProt Q96GD4).
For test [3], the target named is PAK3(h) (Homo sapiens (Human), UniProt O75914).
Sequence of PAK3(h) (O75914 whole entry): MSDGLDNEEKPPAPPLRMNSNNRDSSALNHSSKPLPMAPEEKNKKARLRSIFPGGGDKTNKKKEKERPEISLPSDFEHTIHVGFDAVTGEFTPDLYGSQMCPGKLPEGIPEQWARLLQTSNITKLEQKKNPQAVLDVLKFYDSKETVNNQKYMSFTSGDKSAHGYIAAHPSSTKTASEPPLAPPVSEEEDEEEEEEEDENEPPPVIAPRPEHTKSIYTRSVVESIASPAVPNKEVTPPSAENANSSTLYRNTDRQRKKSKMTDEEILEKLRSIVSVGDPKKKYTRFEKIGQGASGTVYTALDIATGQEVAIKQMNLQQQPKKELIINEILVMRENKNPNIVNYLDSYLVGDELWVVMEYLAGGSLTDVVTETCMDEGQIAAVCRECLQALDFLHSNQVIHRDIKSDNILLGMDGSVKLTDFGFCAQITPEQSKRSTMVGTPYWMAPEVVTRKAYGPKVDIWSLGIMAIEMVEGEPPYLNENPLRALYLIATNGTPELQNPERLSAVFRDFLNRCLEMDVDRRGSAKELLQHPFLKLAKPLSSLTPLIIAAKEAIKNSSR

Sequence of Aurora-B(h) (Q96GD4 whole entry): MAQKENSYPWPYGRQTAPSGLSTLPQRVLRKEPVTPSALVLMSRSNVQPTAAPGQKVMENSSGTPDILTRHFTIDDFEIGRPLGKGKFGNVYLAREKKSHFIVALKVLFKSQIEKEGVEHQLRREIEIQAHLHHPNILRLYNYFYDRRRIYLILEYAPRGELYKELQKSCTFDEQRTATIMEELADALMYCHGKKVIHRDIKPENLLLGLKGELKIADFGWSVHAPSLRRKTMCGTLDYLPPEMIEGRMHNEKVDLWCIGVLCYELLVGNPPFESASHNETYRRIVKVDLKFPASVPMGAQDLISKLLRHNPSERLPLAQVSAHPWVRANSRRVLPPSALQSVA
Sequence of Ret(V804M)(h) (P07949 29-1114 V804M): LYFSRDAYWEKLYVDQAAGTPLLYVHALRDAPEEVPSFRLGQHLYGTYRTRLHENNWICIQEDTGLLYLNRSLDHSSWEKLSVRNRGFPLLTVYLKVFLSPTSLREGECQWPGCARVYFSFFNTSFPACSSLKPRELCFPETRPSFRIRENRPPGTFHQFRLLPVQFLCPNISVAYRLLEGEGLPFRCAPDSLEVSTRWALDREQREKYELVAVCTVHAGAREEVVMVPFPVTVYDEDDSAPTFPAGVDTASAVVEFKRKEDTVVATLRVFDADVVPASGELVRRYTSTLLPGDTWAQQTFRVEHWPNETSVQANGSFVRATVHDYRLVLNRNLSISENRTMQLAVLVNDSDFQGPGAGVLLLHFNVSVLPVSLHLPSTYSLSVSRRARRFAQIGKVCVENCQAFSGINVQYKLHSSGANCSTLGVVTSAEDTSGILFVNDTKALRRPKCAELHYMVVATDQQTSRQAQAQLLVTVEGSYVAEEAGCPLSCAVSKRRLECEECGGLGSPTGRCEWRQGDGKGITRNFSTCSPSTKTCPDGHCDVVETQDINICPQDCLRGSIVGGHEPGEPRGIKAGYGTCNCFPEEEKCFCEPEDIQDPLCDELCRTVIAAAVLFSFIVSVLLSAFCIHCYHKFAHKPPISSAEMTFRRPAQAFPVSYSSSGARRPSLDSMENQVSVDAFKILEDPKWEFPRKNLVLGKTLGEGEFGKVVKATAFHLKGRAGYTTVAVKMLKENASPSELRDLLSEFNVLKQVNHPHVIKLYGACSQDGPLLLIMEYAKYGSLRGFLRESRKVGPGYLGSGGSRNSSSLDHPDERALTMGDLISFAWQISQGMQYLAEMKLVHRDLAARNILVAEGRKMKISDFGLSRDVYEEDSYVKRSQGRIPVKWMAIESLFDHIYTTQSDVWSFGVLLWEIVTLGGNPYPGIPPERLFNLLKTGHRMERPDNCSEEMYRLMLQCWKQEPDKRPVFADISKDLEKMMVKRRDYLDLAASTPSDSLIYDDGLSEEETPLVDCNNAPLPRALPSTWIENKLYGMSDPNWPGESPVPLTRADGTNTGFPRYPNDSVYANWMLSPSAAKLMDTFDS

For the compound `CCn1c(N2CCNCC2)nc2c(Br)c(Br)c(Br)c(Br)c21` [Compound 416, 4,5,6,7-tetrabromo-1-ethyl-2-(piperazin-1-yl)-1H-benzo[d]imidazole], the remaining activity at 1 µM in test [1] is 20%; in test [2], 80%; in test [3], 100%.

What is called remaining activity is the share of the control activity or signal that is left under treatment.

For the origin of these results see US8604217B2, “Compound, a process for its preparation, a pharmaceutical composition, use of a compound, a method for modulating or regulating serine/threonine kinases and a serine/threonine kinases modulating agent” (Selvita S.A., priority 2009, dated 2013).
